Each structure is given as a SMILES string.

Results on 10 compounds are retold here after ChEMBL document CHEMBL5465560, “Selectivity Literature for EUbOPEN Chemogenomic Library” (2024).

Assay [1] has as its target T1, Serine/threonine-protein kinase LATS1 (Homo sapiens) (UniProt O95835).
T1 sequence (whole entry): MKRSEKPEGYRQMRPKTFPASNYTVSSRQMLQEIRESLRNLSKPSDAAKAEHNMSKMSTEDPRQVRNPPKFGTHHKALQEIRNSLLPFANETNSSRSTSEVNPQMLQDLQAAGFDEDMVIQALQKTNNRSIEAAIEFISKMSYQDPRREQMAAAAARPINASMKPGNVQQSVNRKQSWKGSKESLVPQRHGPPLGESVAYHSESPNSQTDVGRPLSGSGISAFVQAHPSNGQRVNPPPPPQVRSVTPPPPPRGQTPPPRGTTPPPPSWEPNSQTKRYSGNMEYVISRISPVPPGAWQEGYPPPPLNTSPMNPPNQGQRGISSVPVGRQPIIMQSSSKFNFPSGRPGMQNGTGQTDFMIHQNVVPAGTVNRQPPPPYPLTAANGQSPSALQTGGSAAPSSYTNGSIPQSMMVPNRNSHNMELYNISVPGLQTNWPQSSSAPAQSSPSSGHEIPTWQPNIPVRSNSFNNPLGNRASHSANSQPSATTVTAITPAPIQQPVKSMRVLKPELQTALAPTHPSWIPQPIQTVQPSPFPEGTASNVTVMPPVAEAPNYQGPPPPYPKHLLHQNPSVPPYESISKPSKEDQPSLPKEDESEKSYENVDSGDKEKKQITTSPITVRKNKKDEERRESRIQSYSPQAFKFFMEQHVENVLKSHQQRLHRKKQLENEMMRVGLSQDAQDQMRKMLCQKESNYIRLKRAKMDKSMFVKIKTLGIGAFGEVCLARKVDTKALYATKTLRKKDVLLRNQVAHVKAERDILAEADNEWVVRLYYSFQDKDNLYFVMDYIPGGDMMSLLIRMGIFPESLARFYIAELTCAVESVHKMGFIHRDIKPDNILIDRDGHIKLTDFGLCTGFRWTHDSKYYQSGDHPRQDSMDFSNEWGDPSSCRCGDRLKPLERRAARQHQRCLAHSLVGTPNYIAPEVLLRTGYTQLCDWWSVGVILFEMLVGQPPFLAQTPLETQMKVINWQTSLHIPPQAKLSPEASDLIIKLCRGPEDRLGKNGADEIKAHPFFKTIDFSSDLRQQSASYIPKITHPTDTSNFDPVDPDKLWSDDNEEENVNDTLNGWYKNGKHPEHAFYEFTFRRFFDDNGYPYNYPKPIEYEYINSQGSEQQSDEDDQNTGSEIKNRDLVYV
As to conditions: at 10 µM.

Assay [2] deals with cAMP-dependent protein kinase catalytic subunit beta (Homo sapiens) (UniProt P22694). Briefly: Selectivity interaction (KinomeScan (DiscoverX)) EUB0000695a PRKACB. The settings on record: at 100 nM.
The target in assay [3] is Tyrosine-protein kinase Fes/Fps (Homo sapiens) (UniProt P07332). Put plainly: Selectivity interaction (KinomeScan (DiscoverX)) EUB0000666a FES. As to conditions: at 10 µM.
The target in assay [4] is Tyrosine-protein kinase Lyn (Homo sapiens, UniProt P07948). Put plainly: Selectivity interaction (KinaseProfiler screening (Millipore)) EUB0000601a LYN. The settings on record: at 3 µM.
Assay [5] has as its target Serine/threonine-protein kinase WNK2 (Homo sapiens) (UniProt Q9Y3S1). Put plainly: Selectivity interaction (ActivX KiNativ screen (kinase selectivity in THP-1 cell lysates)) EUB0000639a WNK2. The class given is subcellular. As to conditions: lysate, at 0.04 µM.
In assay [6] the target is Serine/threonine-protein kinase Nek7 (Homo sapiens) (UniProt Q8TDX7). Put plainly: Selectivity interaction (ActivX KiNativ screen (kinase selectivity in THP-1 cell lysates)) EUB0000639a NEK7. The class given is subcellular. As to conditions: lysate, at 5 µM.
Assay [7] concerns Epidermal growth factor receptor (Homo sapiens), P00533 [L858R,T790M]. Put plainly: (§1) Selectivity interaction (Ambit KINOMEscan and KiNATiv profiling in Jurkat cells) EUB0000090b EGFR. It counts as cell-based. The settings on record: at 1 µM.
Assay [8] concerns Epidermal growth factor receptor (Homo sapiens), P00533 [L858R]. Described as §1. It counts as cell-based. The settings on record: at 1 µM.
Assay [9] concerns Epidermal growth factor receptor (Homo sapiens), P00533 [UNDEFINED MUTATION]. The assay is described as §1. It counts as cell-based. The settings on record: at 1 µM.
The subject of assay [10] is Epidermal growth factor receptor (Homo sapiens), P00533 [G719S]. The assay is described as §1. It counts as cell-based. As to conditions: at 1 µM.
The target of assay [11] is Casein kinase I isoform gamma-1 (Homo sapiens) (UniProt Q9HCP0). Briefly: Selectivity interaction (Upstate Kinase Profiler service (Millipore)) EUB0000056c CSNK1G1. The settings on record: at 1 µM.
In assay [12] the target is Phosphatidylinositol 4,5-bisphosphate 3-kinase catalytic subunit alpha isoform (Homo sapiens) (UniProt P42336). As to conditions: at 10 µM.
Assay [13] has as its target T2, Dual serine/threonine and tyrosine protein kinase (Homo sapiens) (UniProt Q6XUX3).
T2 sequence (whole entry): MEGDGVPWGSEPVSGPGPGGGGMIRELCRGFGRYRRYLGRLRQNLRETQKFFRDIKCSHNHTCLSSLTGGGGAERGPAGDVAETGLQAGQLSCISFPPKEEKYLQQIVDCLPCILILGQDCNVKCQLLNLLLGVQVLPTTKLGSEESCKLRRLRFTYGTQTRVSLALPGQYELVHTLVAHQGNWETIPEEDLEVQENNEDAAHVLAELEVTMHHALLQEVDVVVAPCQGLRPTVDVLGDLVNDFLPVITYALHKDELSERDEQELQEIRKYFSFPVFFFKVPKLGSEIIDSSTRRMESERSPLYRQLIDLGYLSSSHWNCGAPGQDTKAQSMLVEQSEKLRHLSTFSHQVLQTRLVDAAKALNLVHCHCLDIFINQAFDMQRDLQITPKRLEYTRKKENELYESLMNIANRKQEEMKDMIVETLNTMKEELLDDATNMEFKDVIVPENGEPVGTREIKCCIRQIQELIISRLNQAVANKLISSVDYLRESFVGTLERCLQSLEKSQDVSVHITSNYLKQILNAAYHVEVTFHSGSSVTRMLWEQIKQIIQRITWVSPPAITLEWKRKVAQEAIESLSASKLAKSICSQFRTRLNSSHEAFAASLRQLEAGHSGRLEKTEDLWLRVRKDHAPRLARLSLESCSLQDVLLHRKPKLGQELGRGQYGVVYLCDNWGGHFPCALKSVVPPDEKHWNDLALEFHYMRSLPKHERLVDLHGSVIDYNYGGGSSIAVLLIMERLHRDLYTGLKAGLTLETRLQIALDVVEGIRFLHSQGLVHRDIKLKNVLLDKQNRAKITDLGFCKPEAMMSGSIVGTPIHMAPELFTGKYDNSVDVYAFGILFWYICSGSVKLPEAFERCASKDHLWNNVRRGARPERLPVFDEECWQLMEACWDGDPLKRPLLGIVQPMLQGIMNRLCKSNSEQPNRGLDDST
Put plainly: Selectivity interaction (KinomeScan (DiscoverX)) EUB0001079a DSTYK. As to conditions: at 1 µM.

The target in assay [14] is Mitogen-activated protein kinase 4 (Homo sapiens) (UniProt P31152). Put plainly: Selectivity interaction (KinomeScan (DiscoverX)) EUB0000229b MAPK4. The settings on record: at 10 µM.
The target of assay [15] is Ribosomal protein S6 kinase beta-1 (Homo sapiens, UniProt P23443). Briefly: Selectivity interaction (KinomeScan (DiscoverX)) EUB0000229b RPS6KB1. As to conditions: at 10 µM.

Epidermal growth factor receptor (Homo sapiens), P00533 [L858R], sequence (P00533 whole entry L858R): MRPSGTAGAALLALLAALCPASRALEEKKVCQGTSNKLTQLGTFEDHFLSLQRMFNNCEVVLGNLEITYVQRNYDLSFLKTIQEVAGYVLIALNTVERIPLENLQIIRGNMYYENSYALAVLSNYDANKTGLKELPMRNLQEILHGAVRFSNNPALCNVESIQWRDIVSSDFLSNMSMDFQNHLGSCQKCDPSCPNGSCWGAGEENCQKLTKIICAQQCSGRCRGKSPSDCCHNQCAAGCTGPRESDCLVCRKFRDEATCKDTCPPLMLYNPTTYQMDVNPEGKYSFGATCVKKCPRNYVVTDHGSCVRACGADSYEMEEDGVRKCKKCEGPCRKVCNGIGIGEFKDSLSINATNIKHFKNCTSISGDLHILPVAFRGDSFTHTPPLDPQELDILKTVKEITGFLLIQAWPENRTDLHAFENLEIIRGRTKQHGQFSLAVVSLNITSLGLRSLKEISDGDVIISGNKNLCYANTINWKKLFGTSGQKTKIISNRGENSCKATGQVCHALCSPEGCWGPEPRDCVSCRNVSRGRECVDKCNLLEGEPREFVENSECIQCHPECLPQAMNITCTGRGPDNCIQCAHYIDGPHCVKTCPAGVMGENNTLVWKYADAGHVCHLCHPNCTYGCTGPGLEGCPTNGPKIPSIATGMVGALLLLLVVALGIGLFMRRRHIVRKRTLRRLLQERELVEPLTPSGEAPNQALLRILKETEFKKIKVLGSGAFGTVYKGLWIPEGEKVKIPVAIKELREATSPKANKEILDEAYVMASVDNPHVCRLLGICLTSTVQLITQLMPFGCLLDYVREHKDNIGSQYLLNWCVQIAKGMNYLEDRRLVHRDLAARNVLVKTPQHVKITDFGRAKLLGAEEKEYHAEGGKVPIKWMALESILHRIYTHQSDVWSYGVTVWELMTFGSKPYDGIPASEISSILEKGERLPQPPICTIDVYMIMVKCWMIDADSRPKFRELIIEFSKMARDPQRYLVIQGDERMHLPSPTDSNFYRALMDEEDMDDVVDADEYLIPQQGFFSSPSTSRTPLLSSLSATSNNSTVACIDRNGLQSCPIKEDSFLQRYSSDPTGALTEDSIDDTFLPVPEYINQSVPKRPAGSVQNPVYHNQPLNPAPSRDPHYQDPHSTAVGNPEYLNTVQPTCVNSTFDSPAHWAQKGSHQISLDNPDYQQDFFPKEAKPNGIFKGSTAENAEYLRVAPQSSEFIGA
Tyrosine-protein kinase Fes/Fps (Homo sapiens), sequence (P07332 whole entry): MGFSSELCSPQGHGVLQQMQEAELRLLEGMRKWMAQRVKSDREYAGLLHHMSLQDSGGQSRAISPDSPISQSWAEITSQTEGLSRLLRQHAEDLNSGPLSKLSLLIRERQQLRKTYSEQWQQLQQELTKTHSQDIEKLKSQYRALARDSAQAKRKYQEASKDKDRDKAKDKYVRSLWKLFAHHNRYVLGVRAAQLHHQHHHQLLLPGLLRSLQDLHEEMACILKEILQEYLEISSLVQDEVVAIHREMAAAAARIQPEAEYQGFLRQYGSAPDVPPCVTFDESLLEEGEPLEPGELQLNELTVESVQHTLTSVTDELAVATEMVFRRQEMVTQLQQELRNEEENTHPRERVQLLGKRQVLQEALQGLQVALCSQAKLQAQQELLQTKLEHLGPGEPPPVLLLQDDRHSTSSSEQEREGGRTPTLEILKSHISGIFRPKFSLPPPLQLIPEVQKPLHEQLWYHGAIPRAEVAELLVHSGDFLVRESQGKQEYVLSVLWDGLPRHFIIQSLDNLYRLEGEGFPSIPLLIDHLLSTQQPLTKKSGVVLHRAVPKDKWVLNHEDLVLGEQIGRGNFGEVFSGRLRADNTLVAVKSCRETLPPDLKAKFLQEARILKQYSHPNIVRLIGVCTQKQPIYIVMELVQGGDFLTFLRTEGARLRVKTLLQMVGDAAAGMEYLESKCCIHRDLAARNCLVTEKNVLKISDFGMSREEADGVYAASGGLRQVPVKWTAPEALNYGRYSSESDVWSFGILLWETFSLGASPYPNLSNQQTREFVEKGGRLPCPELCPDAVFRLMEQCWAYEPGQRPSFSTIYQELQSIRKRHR
Phosphatidylinositol 4,5-bisphosphate 3-kinase catalytic subunit alpha isoform (Homo sapiens), sequence (P42336 whole entry, canonical isoform): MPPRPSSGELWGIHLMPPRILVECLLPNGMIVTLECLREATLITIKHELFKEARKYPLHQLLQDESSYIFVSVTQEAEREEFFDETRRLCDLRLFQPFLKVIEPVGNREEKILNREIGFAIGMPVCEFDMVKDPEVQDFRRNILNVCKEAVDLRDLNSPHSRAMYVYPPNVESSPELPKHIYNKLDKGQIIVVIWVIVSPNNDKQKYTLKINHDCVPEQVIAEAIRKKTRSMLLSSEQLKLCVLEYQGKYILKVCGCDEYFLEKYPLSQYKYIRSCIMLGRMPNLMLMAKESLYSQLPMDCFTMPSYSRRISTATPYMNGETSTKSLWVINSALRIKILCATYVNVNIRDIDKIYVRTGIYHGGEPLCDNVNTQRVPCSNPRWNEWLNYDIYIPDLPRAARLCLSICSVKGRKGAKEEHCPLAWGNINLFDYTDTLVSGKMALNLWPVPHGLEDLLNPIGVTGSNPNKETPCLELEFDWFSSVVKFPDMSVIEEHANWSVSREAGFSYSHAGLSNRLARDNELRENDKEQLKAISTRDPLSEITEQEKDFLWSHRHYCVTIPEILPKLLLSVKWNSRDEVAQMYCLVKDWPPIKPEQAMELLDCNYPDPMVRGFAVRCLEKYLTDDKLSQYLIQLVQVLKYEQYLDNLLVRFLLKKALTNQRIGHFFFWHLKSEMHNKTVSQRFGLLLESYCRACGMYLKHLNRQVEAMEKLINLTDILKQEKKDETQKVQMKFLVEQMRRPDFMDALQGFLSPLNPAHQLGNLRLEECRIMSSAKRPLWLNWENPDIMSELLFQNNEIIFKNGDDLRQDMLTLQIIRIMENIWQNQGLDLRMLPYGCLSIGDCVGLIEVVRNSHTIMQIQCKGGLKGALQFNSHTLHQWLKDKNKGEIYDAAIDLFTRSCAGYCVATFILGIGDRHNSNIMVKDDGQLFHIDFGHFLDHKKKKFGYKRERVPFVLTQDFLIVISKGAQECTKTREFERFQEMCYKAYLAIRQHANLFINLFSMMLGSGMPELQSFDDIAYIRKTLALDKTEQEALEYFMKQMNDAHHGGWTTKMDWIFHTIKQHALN
Mitogen-activated protein kinase 4 (Homo sapiens), sequence (P31152 whole entry): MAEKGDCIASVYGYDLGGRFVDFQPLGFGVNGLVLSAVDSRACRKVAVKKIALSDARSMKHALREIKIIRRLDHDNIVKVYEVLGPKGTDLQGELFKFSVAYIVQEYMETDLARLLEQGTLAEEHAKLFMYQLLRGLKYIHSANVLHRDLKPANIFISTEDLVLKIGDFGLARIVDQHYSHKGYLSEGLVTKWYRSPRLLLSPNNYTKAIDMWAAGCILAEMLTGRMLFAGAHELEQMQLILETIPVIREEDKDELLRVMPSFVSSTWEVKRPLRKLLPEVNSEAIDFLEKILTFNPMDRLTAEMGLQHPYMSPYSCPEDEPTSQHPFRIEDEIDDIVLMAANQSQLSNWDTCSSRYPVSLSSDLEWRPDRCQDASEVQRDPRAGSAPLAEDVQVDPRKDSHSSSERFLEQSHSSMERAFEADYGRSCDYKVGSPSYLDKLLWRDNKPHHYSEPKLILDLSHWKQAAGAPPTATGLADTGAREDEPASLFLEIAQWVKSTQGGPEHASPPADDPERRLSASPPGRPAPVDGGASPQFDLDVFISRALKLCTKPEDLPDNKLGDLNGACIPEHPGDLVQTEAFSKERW
Epidermal growth factor receptor (Homo sapiens), P00533 [UNDEFINED MUTATION], sequence (P00533 whole entry, looked up, stated change not applied): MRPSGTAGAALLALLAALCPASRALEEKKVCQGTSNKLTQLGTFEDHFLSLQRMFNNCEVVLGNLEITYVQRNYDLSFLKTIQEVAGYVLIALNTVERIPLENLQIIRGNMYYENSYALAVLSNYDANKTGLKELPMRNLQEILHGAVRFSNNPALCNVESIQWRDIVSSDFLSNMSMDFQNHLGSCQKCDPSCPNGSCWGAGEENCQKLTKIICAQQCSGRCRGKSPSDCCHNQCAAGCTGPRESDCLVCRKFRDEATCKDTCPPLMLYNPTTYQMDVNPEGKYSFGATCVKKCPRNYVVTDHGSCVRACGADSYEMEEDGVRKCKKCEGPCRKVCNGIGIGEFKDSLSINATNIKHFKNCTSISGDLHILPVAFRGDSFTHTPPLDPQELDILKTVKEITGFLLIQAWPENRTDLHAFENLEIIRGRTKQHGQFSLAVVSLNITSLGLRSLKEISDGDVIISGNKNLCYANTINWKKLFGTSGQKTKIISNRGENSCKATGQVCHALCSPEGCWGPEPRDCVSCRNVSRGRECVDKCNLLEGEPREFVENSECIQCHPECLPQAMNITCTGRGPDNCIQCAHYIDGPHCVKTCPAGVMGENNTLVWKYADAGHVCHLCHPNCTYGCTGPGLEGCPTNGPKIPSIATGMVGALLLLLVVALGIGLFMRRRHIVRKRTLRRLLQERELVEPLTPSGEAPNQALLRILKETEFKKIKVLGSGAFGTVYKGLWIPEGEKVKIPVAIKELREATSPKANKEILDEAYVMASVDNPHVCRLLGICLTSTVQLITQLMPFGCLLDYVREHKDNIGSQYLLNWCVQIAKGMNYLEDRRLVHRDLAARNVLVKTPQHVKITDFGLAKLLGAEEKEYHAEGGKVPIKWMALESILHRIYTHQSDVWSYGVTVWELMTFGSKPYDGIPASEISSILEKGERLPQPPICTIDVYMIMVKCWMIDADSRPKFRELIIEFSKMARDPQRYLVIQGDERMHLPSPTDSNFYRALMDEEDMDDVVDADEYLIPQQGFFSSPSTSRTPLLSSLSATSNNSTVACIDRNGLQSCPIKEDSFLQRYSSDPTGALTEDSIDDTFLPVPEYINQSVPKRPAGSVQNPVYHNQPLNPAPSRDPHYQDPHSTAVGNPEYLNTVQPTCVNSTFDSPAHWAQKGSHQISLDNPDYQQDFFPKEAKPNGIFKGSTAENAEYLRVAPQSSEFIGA

`CCN(CC)CCCCNc1ncc2cc(-c3cc(OC)cc(OC)c3)c(NC(=O)NC(C)(C)C)nc2n1` gave a % of control in assay [1] of 100%. `Cc1cc(F)c(C(=O)Nc2cccc(-c3nncn3C(C)C)n2)cc1-n1cnc(C2CC2)c1` had a % of control in assay [2] of 100%.

As to `O=C(NOC[C@H](O)CO)c1ccc(F)c(F)c1Nc1ccc(I)cc1F`, the % of control in assay [3] stood at 100%.

For the compound `CCc1cc(Nc2nccc(-c3c(-c4ccc(OC)c(C(=O)Nc5c(F)cccc5F)c4)nc4ccccn34)n2)c(OC)cc1N1CCC(N2CCN(S(C)(=O)=O)CC2)CC1`, in assay [4], the % of inhibition is 37%. In the case of `CC[C@@H]1[C@H](F)C(=O)N[C@@H]1COc1nccc2cc(C(N)=O)c(OC)cc12` [ZIMLOVISERTIB], the % of inhibition was -7.4% in assay [5] and -1.4% in [6].

On to `CN(C)C/C=C/C(=O)Nc1ccc(C(=O)N2CCCC(Nc3ncc(Cl)c(-c4c[nH]c5ccccc45)n3)C2)cc1` (stereo not given), for which the % of control in assay [7] came out at 90%; in assay [8], 100%; in assay [9], 70%; in [10], 91%.

`Cc1ccc(-c2ccc3c(ccc4sc5c(c43)NC[C@@H](C)NC5=O)n2)cn1`: in assay [11], the % of inhibition is 23%. With `CCC(=O)N1CC[C@H](Nc2ncnc3c2CN(c2cnc(OC)c(C(F)(F)F)c2)CC3)C1` [LENIOLISIB], in assay [12], the % of inhibition was 96%. `Nc1cnc(N2CCc3cc(S(=O)(=O)Nc4c(F)cc(Cl)cc4F)cc(N4CCCC4=O)c32)nc1` [TP-020n]: in [13], the % of control stood at 100%.

`COc1cc(N(C)c2ccnc3ccc(C(F)(F)F)cc23)cc(OC)c1OC`: the % binding is 93% in assay [14] and 71% in assay [15].
